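Where inhibition never reached the appropriate level, the endpoint shown equals the highest concentration tested. Otherwise, values were interpolated linearly from a five-concentration, 48-hour dose response in 96-well plates. Abbreviation: GI50, concentration required for 50% inhibition of growth. TGI: concentration producing complete growth inhibition.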
Experiments:
Test in all cases: NCI anticancer screen, dose series, 48 h
RPMI-8226 leukemia = test system: RPMI-8226 leukemia
COLO 205 colon = test system: COLO 205 colon
OVCAR-4 ovarian = test system: OVCAR-4 ovarian
SNB-75 CNS = test system: SNB-75 CNS
U251 CNS = test system: U251 CNS
DU-145 prostate = test system: DU-145 prostate
MALME-3M melanoma = test system: MALME-3M melanoma
SK-MEL-5 melanoma = test system: SK-MEL-5 melanoma
PC-3 prostate = test system: PC-3 prostate
SR leukemia = test system: SR leukemia
UACC-62 melanoma = test system: UACC-62 melanoma
HOP-92 NSCLC = test system: HOP-92 NSCLC
HCC-2998 colon = test system: HCC-2998 colon
HCT-15 colon = test system: HCT-15 colon
OVCAR-8 ovarian = test system: OVCAR-8 ovarian
ACHN renal = test system: ACHN renal
OVCAR-3 ovarian = test system: OVCAR-3 ovarian
CCRF-CEM leukemia = test system: CCRF-CEM leukemia
A549 NSCLC = test system: A549 NSCLC
RXF 393 renal = test system: RXF 393 renal
CAKI-1 renal = test system: CAKI-1 renal
HCT-116 colon = test system: HCT-116 colon
NCI-H23 lung = test system: NCI-H23 lung
MDA-MB-468 breast = test system: MDA-MB-468 breast
HS 578T breast = test system: HS 578T breast
HT29 colon = test system: HT29 colon
MDA-MB-435 = test system: MDA-MB-435
UACC-257 melanoma = test system: UACC-257 melanoma
A498 renal = test system: A498 renal
SNB-19 CNS = test system: SNB-19 CNS
TK-10 renal = test system: TK-10 renal
OVCAR-5 ovarian = test system: OVCAR-5 ovarian
M14 melanoma = test system: M14 melanoma
MCF7 breast = test system: MCF7 breast
LOX IMVI melanoma = test system: LOX IMVI melanoma
K-562 leukemia = test system: K-562 leukemia
KM12 colon = test system: KM12 colon
NCI-H226 lung = test system: NCI-H226 lung
HOP-62 NSCLC = test system: HOP-62 NSCLC
SF-268 CNS = test system: SF-268 CNS
786-0 renal = test system: 786-0 renal
SN12C renal = test system: SN12C renal
SF-539 CNS = test system: SF-539 CNS
SW-620 colon = test system: SW-620 colon
NCI-H460 lung = test system: NCI-H460 lung
MDA-MB-231 breast = test system: MDA-MB-231 breast
NCI-H522 lung = test system: NCI-H522 lung
SF-295 CNS = test system: SF-295 CNS
EKVX NSCLC = test system: EKVX NSCLC
UO-31 renal = test system: UO-31 renal
BT-549 breast = test system: BT-549 breast
T-47D breast = test system: T-47D breast
SK-MEL-2 melanoma = test system: SK-MEL-2 melanoma
IGROV1 ovarian = test system: IGROV1 ovarian
SK-OV-3 ovarian = test system: SK-OV-3 ovarian
MOLT-4 leukemia = test system: MOLT-4 leukemia
SK-MEL-28 melanoma = test system: SK-MEL-28 melanoma

With O=c1oc2ccc(-c3ccc(F)cc3F)cc2c(=O)n1-c1ccc(F)c(Cl)c1 the GI50 (RPMI-8226 leukemia) was 1.62 µM, the TGI (RPMI-8226 leukemia) was 6.62 µM and the GI50 (COLO 205 colon) was 12.3 µM. The TGI (COLO 205 colon) was 26.2 µM, the GI50 (OVCAR-4 ovarian) was 3.24 µM and the TGI (OVCAR-4 ovarian) was 39.6 µM. It also gave a GI50 (SNB-75 CNS) of 1.59 µM, a TGI (SNB-75 CNS) of 5.77 µM and a GI50 (U251 CNS) of 2.9 µM. It also gave a TGI (U251 CNS) of 11.7 µM, a GI50 (DU-145 prostate) of 4.12 µM and a TGI (DU-145 prostate) of 25.3 µM. The GI50 (MALME-3M melanoma) was 2.03 µM, the TGI (MALME-3M melanoma) was 5.65 µM and the GI50 (SK-MEL-5 melanoma) was 1.46 µM. It also gave a TGI (SK-MEL-5 melanoma) of 3.03 µM, a GI50 (PC-3 prostate) of 3.18 µM and a TGI (PC-3 prostate) of 13.7 µM. It also gave a GI50 (SR leukemia) of 2.96 µM, a TGI (SR leukemia) of 20.5 µM and a GI50 (UACC-62 melanoma) of 1.88 µM. It also gave a TGI (UACC-62 melanoma) of 5.01 µM, a GI50 (HOP-92 NSCLC) of 0.808 µM and a TGI (HOP-92 NSCLC) of 4.78 µM. It also gave a GI50 (HCC-2998 colon) of 3.42 µM, a TGI (HCC-2998 colon) of 12.4 µM and a GI50 (HCT-15 colon) of 3.17 µM. The TGI (HCT-15 colon) was 14.9 µM, the GI50 (OVCAR-8 ovarian) was 3.55 µM and the TGI (OVCAR-8 ovarian) was 25.4 µM. It also gave a GI50 (ACHN renal) of 3.06 µM, a TGI (ACHN renal) of 10.1 µM and a GI50 (OVCAR-3 ovarian) of 3.13 µM. It also gave a TGI (OVCAR-3 ovarian) of 11.9 µM, a GI50 (CCRF-CEM leukemia) of 3.69 µM and a TGI (CCRF-CEM leukemia) of 35.4 µM. It also gave a GI50 (A549 NSCLC) of 2.87 µM, a TGI (A549 NSCLC) of 15 µM and a GI50 (RXF 393 renal) of 1.77 µM. For the same molecule, the TGI (RXF 393 renal) was 5.67 µM, the GI50 (CAKI-1 renal) was 1.72 µM and the TGI (CAKI-1 renal) was 5.11 µM. It also gave a GI50 (HCT-116 colon) of 3.01 µM, a TGI (HCT-116 colon) of 10.1 µM and a GI50 (NCI-H23 lung) of 2.21 µM. The TGI (NCI-H23 lung) was 6.45 µM, the GI50 (MDA-MB-468 breast) was 2.25 µM and the TGI (MDA-MB-468 breast) was 5.84 µM. It also gave a GI50 (HS 578T breast) of 2.42 µM, a TGI (HS 578T breast) of 7.45 µM and a GI50 (HT29 colon) of 9.51 µM. The TGI (HT29 colon) was 27.3 µM, the GI50 (MDA-MB-435) was 2.58 µM and the TGI (MDA-MB-435) was 7.95 µM. It also gave a GI50 (UACC-257 melanoma) of 2.07 µM, a TGI (UACC-257 melanoma) of 6.51 µM and a GI50 (A498 renal) of 2.25 µM. For the same molecule, the TGI (A498 renal) was 6.36 µM, the GI50 (SNB-19 CNS) was 3.79 µM and the TGI (SNB-19 CNS) was 23.8 µM. For the same molecule, the GI50 (TK-10 renal) was 3.11 µM, the TGI (TK-10 renal) was 9.19 µM and the GI50 (OVCAR-5 ovarian) was 3.68 µM. It also gave a TGI (OVCAR-5 ovarian) of 20.6 µM, a GI50 (M14 melanoma) of 3.28 µM and a TGI (M14 melanoma) of 11.1 µM. For the same molecule, the GI50 (MCF7 breast) was 3.27 µM, the TGI (MCF7 breast) was 56.9 µM and the GI50 (LOX IMVI melanoma) was 3.69 µM. It also gave a TGI (LOX IMVI melanoma) of 12.2 µM, a GI50 (K-562 leukemia) of 2.12 µM and a TGI (K-562 leukemia) of over 100 µM. It also gave a GI50 (KM12 colon) of 2.97 µM, a TGI (KM12 colon) of 9.62 µM and a GI50 (NCI-H226 lung) of 1.98 µM. It also gave a TGI (NCI-H226 lung) of 7.01 µM, a GI50 (HOP-62 NSCLC) of 2.38 µM and a TGI (HOP-62 NSCLC) of 6.66 µM. For the same molecule, the GI50 (SF-268 CNS) was 2.69 µM, the TGI (SF-268 CNS) was 11.6 µM and the GI50 (786-0 renal) was 2.38 µM. The TGI (786-0 renal) was 7.2 µM, the GI50 (SN12C renal) was 2.16 µM and the TGI (SN12C renal) was 8.67 µM. For the same molecule, the GI50 (SF-539 CNS) was 3.16 µM, the TGI (SF-539 CNS) was 10.4 µM and the GI50 (SW-620 colon) was 3.43 µM. The TGI (SW-620 colon) was 13 µM, the GI50 (NCI-H460 lung) was 2.93 µM and the TGI (NCI-H460 lung) was 9.93 µM. It also gave a GI50 (MDA-MB-231 breast) of 1.37 µM, a TGI (MDA-MB-231 breast) of 3.77 µM and a GI50 (NCI-H522 lung) of 1.85 µM. For the same molecule, the TGI (NCI-H522 lung) was 6.39 µM, the GI50 (SF-295 CNS) was 2.68 µM and the TGI (SF-295 CNS) was 7.72 µM. It also gave a GI50 (EKVX NSCLC) of 3 µM, a TGI (EKVX NSCLC) of 21.3 µM and a GI50 (UO-31 renal) of 2.4 µM. The TGI (UO-31 renal) was 9.98 µM, the GI50 (BT-549 breast) was 1.8 µM and the TGI (BT-549 breast) was 4.14 µM. For the same molecule, the GI50 (T-47D breast) was 2.28 µM, the TGI (T-47D breast) was 6.71 µM and the GI50 (SK-MEL-2 melanoma) was 2.09 µM. It also gave a TGI (SK-MEL-2 melanoma) of 4.56 µM, a GI50 (IGROV1 ovarian) of 3.49 µM and a TGI (IGROV1 ovarian) of 17.4 µM. It also gave a GI50 (SK-OV-3 ovarian) of 2.41 µM, a TGI (SK-OV-3 ovarian) of 6.33 µM and a GI50 (MOLT-4 leukemia) of 3.83 µM. It also gave a TGI (MOLT-4 leukemia) of 45.1 µM, a GI50 (SK-MEL-28 melanoma) of 3.29 µM and a TGI (SK-MEL-28 melanoma) of 12.7 µM.
